Data on 18 compounds can be found in PMC9670909 (ACS Omega, 2022).

One test deals with T1, Human recombinant MAO-A (Homo sapiens, UniProt P21397).
T1 sequence (P21397 1-527): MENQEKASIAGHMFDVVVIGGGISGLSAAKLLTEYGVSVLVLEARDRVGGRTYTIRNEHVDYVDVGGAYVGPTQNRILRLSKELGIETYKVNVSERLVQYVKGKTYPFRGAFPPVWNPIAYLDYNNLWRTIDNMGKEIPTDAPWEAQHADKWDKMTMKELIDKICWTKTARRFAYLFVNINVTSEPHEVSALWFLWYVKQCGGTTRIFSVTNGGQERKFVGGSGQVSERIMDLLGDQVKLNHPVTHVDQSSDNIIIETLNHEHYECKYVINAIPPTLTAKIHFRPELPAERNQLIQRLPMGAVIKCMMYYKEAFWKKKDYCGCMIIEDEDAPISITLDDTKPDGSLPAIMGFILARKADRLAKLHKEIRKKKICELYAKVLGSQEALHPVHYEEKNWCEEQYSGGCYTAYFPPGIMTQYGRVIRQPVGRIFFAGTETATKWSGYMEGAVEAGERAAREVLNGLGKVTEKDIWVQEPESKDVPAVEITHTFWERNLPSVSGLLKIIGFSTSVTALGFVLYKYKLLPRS
Nature of the test: MAO-A inhibitory assay. The class given is biochemical.

The next test has as its target T2, MAO-B (Homo sapiens, UniProt P27338).
T2 sequence (P27338 1-520): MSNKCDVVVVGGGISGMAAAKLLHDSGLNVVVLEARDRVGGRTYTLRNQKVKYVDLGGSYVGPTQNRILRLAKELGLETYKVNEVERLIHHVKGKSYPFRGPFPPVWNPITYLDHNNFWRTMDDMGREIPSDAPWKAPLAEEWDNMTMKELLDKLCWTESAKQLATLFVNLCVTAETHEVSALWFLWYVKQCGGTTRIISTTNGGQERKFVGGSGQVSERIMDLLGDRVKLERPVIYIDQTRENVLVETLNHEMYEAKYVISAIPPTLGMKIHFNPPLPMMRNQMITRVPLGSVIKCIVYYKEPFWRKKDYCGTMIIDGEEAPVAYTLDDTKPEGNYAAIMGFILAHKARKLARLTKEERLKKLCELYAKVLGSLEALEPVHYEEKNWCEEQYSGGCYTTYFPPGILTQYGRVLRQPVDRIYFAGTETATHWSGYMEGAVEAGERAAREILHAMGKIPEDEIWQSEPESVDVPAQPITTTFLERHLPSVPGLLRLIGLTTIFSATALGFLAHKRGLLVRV
Nature of the test: MAO-B inhibitory assay. The class given is biochemical. The conditions noted are these: MAO-B IC50, kynuramine 30 μM, potassium phosphate buffer pH 7.4, 37 °C, 20 min.

For the compound `COc1cc(OC)c2c(c1)C(O)(c1cc(C)cc(OC)c1OC)OC2=O` (stereo not drawn) [compound 12, 3-(2,3-Dimethoxy-5-methylphenyl)-3-hydroxy-5,7-dimethoxyisobenzofuran-1(3H)-one], the figures for the IC50 on Human recombinant MAO-A and against MAO-B were above 100 µM and 52.8 µM, respectively.

In the case of `COc1cc(OC)c(Br)c(C(=O)c2cc(C)cc(OC)c2OC)c1` [compound 16, (2-Bromo-3,5-dimethoxyphenyl)(2,3-dimethoxy-5-methylphenyl)methanone], the results for the IC50 on Human recombinant MAO-A and on MAO-B were 62.1 µM and above 100 µM, respectively.

In the case of `COc1cc(OC)c(C#N)c(C(=O)c2cc(C)cc(OC)c2OC)c1` [compound 17, 2-(2,3-Dimethoxy-5-methylbenzoyl)-4,6-dimethoxybenzonitrile], the half-inhibitory concentration (IC50) at Human recombinant MAO-A and at MAO-B was above 100 µM throughout.

As to `COC(=O)c1c(OC)cc(OC)cc1C(=O)c1cc(C)cc(OC)c1OC` [compound 19, Methyl 2-(2,3-dimethoxy-5-methylbenzoyl)-4,6-dimethoxybenzoate], the IC50 on Human recombinant MAO-A and at MAO-B was above 100 µM in each case.

Turning to `CCOC(=O)c1c(OC)cc(OC)cc1C(=O)c1cc(C)cc(OC)c1OC` [compound 21, Ethyl 2-(2,3-dimethoxy-5-methylbenzoyl)-4,6-dimethoxybenzoate], the figures for the IC50 at Human recombinant MAO-A and against MAO-B were 47 µM and 61.6 µM, respectively.

On to `COc1cc(C)cc(C(=O)c2cc(OCc3ccccc3)cc(OCc3ccccc3)c2)c1OC` [compound 25, (3,5-Bis(benzyloxy)phenyl)(2,3-dimethoxy-5-methylphenyl)methanone], for which the half-inhibitory concentration (IC50) at Human recombinant MAO-A and against MAO-B was above 100 µM each time.

On to `COc1cc(C)cc(C(=O)c2cc(OCc3ccccc3)cc(OCc3ccccc3)c2Br)c1OC` [compound 26, (3,5-Bis(benzyloxy)-2-bromophenyl)(2,3-dimethoxy-5-methylphenyl)methanone], for which the IC50 at Human recombinant MAO-A and on MAO-B was above 100 µM in each case.

In the case of `COc1cc(C)cc(C(=O)c2cc(OCc3ccccc3)cc(OCc3ccccc3)c2C#N)c1OC` [compound 27, 2,4-Bis(benzyloxy)-6-(2,3-dimethoxy-5-methylbenzoyl)benzonitrile], the half-inhibitory concentration (IC50) on Human recombinant MAO-A and against MAO-B was above 100 µM each time.

Take `COc1cc(C)cc(C(=O)c2cc(O)cc(O)c2Br)c1O` [compound 31, (2-Bromo-3,5-dihydroxyphenyl)(2-hydroxy-3-methoxy-5-methylphenyl)methanone]: the IC50 on Human recombinant MAO-A is 14.8 µM; against MAO-B, 43.7 µM.

Regarding `COCOc1cc(O)cc(C(=O)c2cc(C)cc(OC)c2O)c1Br` [compound 32, (2-Bromo-5-hydroxy-3-(methoxymethoxy)phenyl) (2-hydroxy-3-methoxy-5-methylphenyl)methanone], the results for the 50% inhibitory concentration (IC50) on Human recombinant MAO-A and at MAO-B were 34.1 µM and 53.6 µM, respectively.

For the compound `COCOc1cc(OC)cc(C(=O)c2cc(C)cc(OC)c2OC)c1Br` [compound 33, (2-Bromo-5-methoxy-3-(methoxymethoxy)phenyl)(2,3-dimethoxy-5-methylphenyl)methanone], the figures for the IC50 at Human recombinant MAO-A and against MAO-B were 27.5 µM and above 100 µM, respectively.

Consider `COCOc1cc(OC)cc(C(=O)c2cc(C)cc(OC)c2OC)c1C#N` [compound 34, 2-(2,3-Dimethoxy-5-methylbenzoyl)-4-methoxy-6-(methoxymethoxy)benzonitrile], for which the IC50 at Human recombinant MAO-A is 24.8 µM; at MAO-B, above 100 µM.

Turning to `COCOc1cc(OC)cc2c1C(=O)NC2(O)c1cc(C)cc(OC)c1OC` (stereo not drawn) [compound 35, 3-(2,3-Dimethoxy-5-methylphenyl)-3-hydroxy-5-methoxy-7-(methoxymethoxy)isoindolin-1-one], the IC50 on Human recombinant MAO-A and against MAO-B was above 100 µM each time.

For `COc1cc(O)c2c(c1)C(O)(c1cc(C)cc(OC)c1OC)NC2=O` (stereo not drawn) [compound 36, 3-(2,3-Dimethoxy-5-methylphenyl)-3,7-dihydroxy-5-methoxyisoindolin-1-one], the concentration for half-maximal inhibition (IC50) came out at 31.9 µM on Human recombinant MAO-A and 38.4 µM against MAO-B.

For the compound `COCOc1cc(OCc2ccccc2)cc(C(=O)c2cc(C)cc(OC)c2OCc2ccccc2)c1Br` [compound 37, (5-(Benzyloxy)-2-bromo-3-(methoxymethoxy)phenyl) (2-(benzyloxy)-3-methoxy-5-methylphenyl)methanone], the concentration for half-maximal inhibition (IC50) was 52.2 µM on Human recombinant MAO-A and 18.6 µM at MAO-B.

In the case of `COc1cc(C)cc(C(=O)c2cc(OCc3ccccc3)cc(O)c2Br)c1OCc1ccccc1` [compound 38, (5-(Benzyloxy)-2-bromo-3-hydroxyphenyl) (2-(benzyloxy)-3-methoxy-5-methylphenyl)methanone], the half-maximal inhibitory concentration (IC50) on Human recombinant MAO-A stood at 20.6 µM; against MAO-B it was 94.3 µM.

Regarding `COc1cc(OCc2ccccc2)cc(C(=O)c2cc(C)cc(OC)c2OCc2ccccc2)c1Br` [compound 39, (5-(Benzyloxy)-2-bromo-3-methoxyphenyl) (2-(benzyloxy)-3-methoxy-5-methylphenyl)methanone], the IC50 on Human recombinant MAO-A and at MAO-B was above 100 µM in each case.

Regarding `COc1cc(OCc2ccccc2)cc(C(=O)c2cc(C)cc(OC)c2OCc2ccccc2)c1C#N` [compound 40, (5-(Benzyloxy)-2-cyano-3-methoxyphenyl) (2-(benzyloxy)-3-methoxy-5-methylphenyl)methanone], the half-inhibitory concentration (IC50) at Human recombinant MAO-A and against MAO-B was above 100 µM throughout.

By IC50 is commonly meant the concentration that gives 50% inhibition.
